One data set has as its system ALS. Particulars: cited from earlier work; for efficacy in clinical trials: ALS therapeutic drug candidates.
The next data set concerns NSC-34 cells. Nature of the data set: ROS assay. In kind it is cell-based, mouse. The method, then: The ROS assay is a test in which the test substances are evaluated for their ability to eliminate the ROS produced by a cell under stress. The ROS assay was performed by culturing NSC-34 cells in a medium from which serum (FBS) had been removed, and measuring the increased ROS produced at that time using CM-H2DCFDA.
NSC-34 cells were suspended in phenol red free DMEM medium, and NSC-34 cells were seeded at a target concentration of 4×10^4 cells/well in a 96-well plate at 200 μL/well.
Then, the medium was completely removed from the 96-well plate, DMEM ([-] phenol red) was added at 200 μL/well, and then the test substance dissolved in DMSO (or solvent only) was added at 0.4 μL/well. […] And placed in the incubator for 1 hour. One hour later, the fluorescence intensity (excitation wavelength 485 nm, fluorescence wavelength 520 nm) was measured using a fluorescence microplate reader.
The test was performed 2 to 4 times in quadruplicate. As a positive control, 30 μg/mL (120 μM) trolox was used. From the measurement result obtained with the test substance, the relative intensity to trolox was calculated by the following formula (1).

Data set [1] concerns differentiated NSC-34 cells. Nature of the data set: ODAP-EA assay (reducing effect on motor excitotoxicity). In kind it is cell-based, mouse. From the text:
ODAP-EA assay was invented by the present inventor as a test for measuring the reducing effect on motor exciotoxicity (Kusama-Eguchi K, et. al. Food Chem Toxicol., 49, 636-643 (2011)). In the ODAP-EA assay, differentiated NSC-34 cells were subjected to excitotoxicity in NSC-34 cells by adding ethacrynic acid (EA), which has a mitochondrial glutathione level-lowering effect, and L-β-ODAP, which is a neurotoxic amino acid. Then, the effect of reducing the excitotoxicity of the test substance is evaluated.
NSC34 cells were cultivated in a Rich medium in a […] until they became confluent, and then the Rich medium in the dish was removed. […] The replacement of the Poor medium once a day was repeated about 3 to 5 times to promote the differentiation of NSC-34 cells.
The NSC-34 cells differentiated as described above were suspended in Poor medium and seeded in a 96-well plate at a target concentration of 4×10^4 cells/well at 200 μL/well. […]
Then, 110 μL of the medium in the well plate was removed, 10 μL/well of AlamarBlue™ previously returned to room temperature was added, and the plate was placed in an incubator at 37° C. under 5% CO2 condition. After about 1 hour, the fluorescence intensity (excitation wavelength: 544 nm, fluorescence wavelength: 590 nm) was measured using a fluorescence plate reader. […]

The subject of data set [2] is ALS model mice holding SOD1-G93A gene. Nature of the data set: Change in the body weight of ALS model mice, administration test 1. It counts as in vivo. As to conditions: 1 mg/kg and 10 mg/kg, oral once a day from 60 days after birth. The protocol:
(§1) ALS model mice holding SOD1-G93A gene were used for the experiment. The first generation mouse was generated by bleeding a 6-week-old SOD1-G93A transgenic male (B6SJL-Tg (SOD1-G93A) 1Gur/J, imported from The Jackson Laboratory, USA) with 8-week-old C57BL/6J female mice (designated as F1 as shown below), and placed in the same cage for 1 week for mating.
(§2) Backcrossing was performed using the first backcross SOD1-G93A gene-bearing male mouse (FuBk1) and C57BL/6J female mouse (F1) produced as described above, and the resulting mouse carrying the SOD1-G93A gene was backcrossed with C57BL/6J female mice, which was the second mouse (FuBk2) They were used in the preliminary test described below. A male mouse (FuBk2) carrying the SOD1-G93A gene was further crossed with an F1 female mouse to prepare a third backcrossed mouse (FuBk3) and a fourth backcrossed mouse (FuBk4), which will be described later as the final examination.
Subject animal: The second backcrossed mice (FuBk2) holding SOD1-G93A were determined by genotyping, and were used for the treatment experiment from 60 days after birth (pre-symptomatic period). A total of 16 animals were used as test animals (n=16).
The test substance dissolved in DMSO was prepared at a concentration shown in Table 12 using a 2.5% DMSO (final concentration) solution as a solvent. […]
The body weight was measured twice a week. […]

Data set [3] has the same test system. Kind of data set: Motor performance (Rota-rod test) in ALS model mice. It counts as in vivo, mouse. The protocol:
as §1
Backcrossing was performed using the first backcross SOD1-G93A gene-bearing male mouse (FuBk1) and C57BL/6J female mouse (F1) produced as described above, and the resulting mouse carrying the SOD1-G93A gene was backcrossed with C57BL/6J female mice, which was the second mouse (FuBk2) They were used in the preliminary test described below. […]
(§3) The test substance was evaluated based on two points: the survival days of mice and motor function. Regarding the number of days of survival, the number of days until the mouse was determined to be dead (including surrogate death) was evaluated. Motor function was evaluated by a motor test using the Rota-rod method.
In order to investigate the onset time of ALS-like symptoms in the test subject mouse, the motor function of the mouse was measured once a week by the Rota-rod method using a ROTA-ROD TREADMILL for MICE MK-600 (Muromachi). […] Those who fell twice in 300 seconds or less were regarded as mice showing the symptoms of motor inability, and the latency (seconds) until they fell was also measured. […]
Background: The rotarod test checks motor coordination on a turning rod.

For data set [4] the test system is unchanged. Nature of the data set: Survival days (Kaplan-Meier) in ALS model mice. In kind it is in vivo, mouse. The method, then: as §1, §2, §3
A mouse that lost its righting reflex and could not return to the correct posture within 20 seconds was determined to be a surrogate death.
The test results were analyzed by the Kaplan-Meier method, and the p-value and median were obtained by the Log-Rank test or the Wilcoxon test. The latency between control and YY-1 group after developing of the motor inability was analyzed by T-test for each measuring point.
Of the third backcrossed mouse (FuBk3) carrying the SOD1-G93A gene, a total of 51 male and female mice determined to carry the SOD1-G93A gene by genotyping, and were used as test animals.
The test drug was prepared at a concentration shown in Table 14 using a 1% DMSO+2% Tween 20 solution as a solvent. The test substance was orally administered to mice using a sterilized disposable sonde. According to Table 13 above, the test substance in an amount corresponding to the body weight was […] administered to the mouse.
A total of 52 determined female mice were used as test animals.
The test substance was administered to the mouse once a day from 105 days after birth using a sterilized disposable oral probe at 0.1 mL/10 g (body weight) (10 mg/kg).

The subject of data set [5] is SOD1-G93A-introduced N2a cells. Nature of the data set: Dual-luciferase assay (SOD1-G93A gene introduced into N2a cells). As to conditions: positive control resveratrol.
The mark [6] stands for this setting: 5 mg/kg oral once a day from about 45 days after birth, FuBk3 mice, tendency, p=0.090.
Setting [7] is: 10 mg/kg oral once a day from 105 days after birth, FuBk4 mice, p=0.029.

Here are results for six compounds from patent publication US20250263388A1, “NOVEL COMPOUND BASED ON VALEROLACTONE AND MEDICINE” (priority 2018, published 2025).

Where only a bound is given, the exact number is not on record here.

`CC(=O)N[C@@H](CS)C(=O)O` [N-acetylcysteine]: the “efficacy in clinical trials” value in the data set on ALS is recorded as “no efficacy”.

Regarding `C/C=C/C=C/[C@H]1OC(=O)CC[C@@H]1O` [YY-1, (5S,6R)-5-hydroxy-6-[(1E,3E)-penta-1,3-dien-1-yl] tetrahydro-2H-pyran-2-one], in the data set with NSC-34 cells (relative to 30 μg/mL (120 μM) trolox, serum-free medium, test substance 10, 30 or 100 μg/mL), the “ROS scavenging action relative to trolox” value was “about 20%”. Further, in the data set on NSC-34 cells (same concentration as 322-Ext), the “ROS assay activity relative to 322-Ext at the same concentration” value is reported as “about 40%”. Moreover, in data set [1] (0.1 to 3.0 μg/mL (0.55 to 16.5 μM)), the “relative strength with respect to 4 mM NAC (highest)” value was ≤ 20%. Besides, in data set [1] (all concentrations of 0.1 to 100 μg/mL (0.55 to 550 μM)), the ODAP-EA toxicity-reducing effect result is listed as “strong ODAP-EA toxicity-reducing effect”. In addition, in data set [2], the “toxicity to the ALS model mouse (presumed from body weight)” value is reported as “no or low toxicity”. In addition, in data set [2] (FuBk2 male mice), the body weight change result is listed as “no significant weight loss”. In addition, the “prolongation of development of motor disability vs control, median” value in data set [3] (5 mg/kg oral once a day from about 45 days after birth, FuBk3 mice, tendency, p=0.12) was 7 days. In data set [3] (10 mg/kg oral once a day from 105 days after birth, FuBk4 mice), the “delay effect in motor dysfunction” value is given as “about 7 days”. Moreover, in data set [4] (setting [6]), the “extension of survival days vs control, average value” is “about 5 days” and the “extension of survival days vs control, median value” was 8 days. In addition, in data set [4] (setting [7]), the “prolongation of survival days vs control, mean value” was “about 6 days” and the “prolongation of survival days vs control, median value” amounted to 5 days. In addition, in data set [5] (0.1 μg/mL (0.55 μM)), the “luminescence intensity in excess of the positive control” value was “about 40%”. Besides, the “luminescence intensity in excess of the positive control” value in data set [5] (1 μg/mL (5.5 μM)) is on record as “about 40%”.

On to `COC1=C(OC)C(=O)C(C/C=C(\C)CC/C=C(\C)CC/C=C(\C)CC/C=C(\C)CC/C=C(\C)CC/C=C(\C)CC/C=C(\C)CC/C=C(\C)CC/C=C(\C)CCC=C(C)C)=C(C)C1=O` [coenzyme Q10], for which, in the data set on ALS, the “efficacy in clinical trials” value is recorded as “no efficacy”.

Regarding `N[C@@H](CCC(=O)N[C@@H](CS)C(=O)NCC(=O)O)C(=O)O` [glutathione], in the data set on ALS, the “efficacy in clinical trials” value is listed as “no efficacy”.

Take `C/C1=C2/[N-][C@H]([C@H](CC(N)=O)[C@@]2(C)CCC(=O)NC[C@@H](C)OP(=O)([O-])O[C@H]2[C@@H](O)[C@@H](n3cnc4cc(C)c(C)cc43)O[C@@H]2CO)[C@]2(C)N=C(/C(C)=C3N=C(/C=C4N=C1[C@@H](CCC(N)=O)C\4(C)C)[C@@H](CCC(N)=O)[C@]\3(C)CC(N)=O)[C@@H](CCC(N)=O)[C@]2(C)CC(N)=O.[CH3-].[Co+3]` [methylcobalamin]: the “efficacy in clinical trials” value in the data set with ALS is “no efficacy”.

As to “IGF-1: Insulin-like growth factor-1, protein expected to have an action of preventing motor nerve loss”, in the data set on ALS (Non-Patent Document 5), the “outcome of clinical trials (Phase 3)” value was “unsuccessful”.
